Each sequence was assayed on TTR (assay: TTR editing in HepG2 cells transfected with Spy Cas9 mRNA and dgRNAs (Table 6)). Conditions: HepG2 cells co-transfected with Spy Cas9 mRNA (SEQ ID NO:2) and dgRNAs.
Format: cell-based, human
Summary of the method: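 HepG2 cells were transfected sequentially by lipofection with Spy Cas9 mRNA (100 ng), then crRNA plus tracer RNA (25 nM each), and harvested at 24, 48 or 72 h. Editing was measured by amplicon NGS at the TTR target site as the fraction of reads with indels or substitutions.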
For “UGGACUGGUAUUUGUGUCUG (tested as dual guide RNA, chemistry not given here) [CR003340]”, the “Avg % Deletion” value was 31.65%, the “Avg % Edit” value was 37.76% and the “Avg % Insert” value was 6.12%.
For “GUCACAGAAACACUCACCGU (tested as dual guide RNA, chemistry not given here) [CR005301]”, the “Avg % Deletion” value was 3.65%, the “Avg % Edit” value was 37.04% and the “Avg % Insert” value was 33.39%.
“AUUGGUGACGACAGCCGUGG (tested as dual guide RNA, chemistry not given here) [CR003389]” was tested, and the “Avg % Deletion” value was 4.57%, the “Avg % Edit” value was 31.84% and the “Avg % Insert” value was 27.27%.
For “CCGUGGUGGAAUAGGAGUAG (tested as dual guide RNA, chemistry not given here) [CR003386]”, the “Avg % Deletion” value was 0.56%, the “Avg % Edit” value was 2.71% and the “Avg % Insert” value was 2.15%.
With “GACGACAGCCGUGGUGGAAU (tested as dual guide RNA, chemistry not given here) [CR003388]” the “Avg % Deletion” value was 1.56%, the “Avg % Edit” value was 9.33% and the “Avg % Insert” value was 7.76%.
In the case of “UGUAGAAGGGAUAUACAAAG (tested as dual guide RNA, chemistry not given here) [CR003365]”, the “Avg % Deletion” value is reported as 11.11%, the “Avg % Edit” value is reported as 46.88% and the “Avg % Insert” value is reported as 35.77%.
For “AUAGGAGUAGGGGCUCAGCA (tested as dual guide RNA, chemistry not given here) [CR003383]”, the “Avg % Deletion” value was 0.16%, the “Avg % Edit” value was 6.35% and the “Avg % Insert” value was 6.19%.
“AUACCAGUCCAGCAAGGCAG (tested as dual guide RNA, chemistry not given here) [CR003338]” was tested, and the “Avg % Deletion” value was 2.60%, the “Avg % Edit” value was 68.00% and the “Avg % Insert” value was 65.40%.
In the case of “ACCUCUGCAUGCUCAUGGAA (tested as dual guide RNA, chemistry not given here) [CR003371]”, the “Avg % Deletion” value is reported as 1.84%, the “Avg % Edit” value is reported as 15.91% and the “Avg % Insert” value is reported as 14.07%.
With “AGACACCAAAUCUUACUGGA (tested as dual guide RNA, chemistry not given here) [CR003367]” the “Avg % Deletion” value was 21.27%, the “Avg % Edit” value was 45.55% and the “Avg % Insert” value was 24.28%.
“UCUAGAACUUUGACCAUCAG (tested as dual guide RNA, chemistry not given here) [CR003345]” was tested, and the “Avg % Deletion” value was 4.45%, the “Avg % Edit” value was 10.58% and the “Avg % Insert” value was 6.12%.
For “GCAACUUACCCAGAGGCAAA (tested as dual guide RNA, chemistry not given here) [CR003356]”, the “Avg % Deletion” value was 3.72%, the “Avg % Edit” value was 9.39% and the “Avg % Insert” value was 5.67%.
For “AAAUAGACACCAAAUCUUAC (tested as dual guide RNA, chemistry not given here) [CR003366]”, the “Avg % Deletion” value was 8.49%, the “Avg % Edit” value was 54.69% and the “Avg % Insert” value was 46.20%.
With “CCCAGAGGCAAAUGGCUCCC (tested as dual guide RNA, chemistry not given here) [CR003355]” the “Avg % Deletion” value was 3.44%, the “Avg % Edit” value was 15.80% and the “Avg % Insert” value was 12.36%.
“GAAAGGCUGCUGAUGACACC (tested as dual guide RNA, chemistry not given here) [CR003352]” was tested, and the “Avg % Deletion” value was 4.77%, the “Avg % Edit” value was 44.28% and the “Avg % Insert” value was 39.51%.
“UACUCACCUCUGCAUGCUCA (tested as dual guide RNA, chemistry not given here) [CR003372]” was tested, and the “Avg % Deletion” value was 2.42%, the “Avg % Edit” value was 14.57% and the “Avg % Insert” value was 12.14%.
In the case of “CCUCCUCUGCCUUGCUGGAC (tested as dual guide RNA, chemistry not given here) [CR003336]”, the “Avg % Deletion” value is reported as 0.83%, the “Avg % Edit” value is reported as 31.31% and the “Avg % Insert” value is reported as 30.48%.
With “UUUGACCAUCAGAGGACACU (tested as dual guide RNA, chemistry not given here) [CR003344]” the “Avg % Deletion” value was 3.62%, the “Avg % Edit” value was 33.43% and the “Avg % Insert” value was 29.81%.
With “UGAAUCCAAGUGUCCUCUGA (tested as dual guide RNA, chemistry not given here) [CR005303]” the “Avg % Deletion” value was 1.08%, the “Avg % Edit” value was 21.63% and the “Avg % Insert” value was 20.55%.
With “CCUCUGCAUGCUCAUGGAAU (tested as dual guide RNA, chemistry not given here) [CR003370]” the “Avg % Deletion” value was 3.62%, the “Avg % Edit” value was 28.51% and the “Avg % Insert” value was 24.88%.
With “GGGAUUGGUGACGACAGCCG (tested as dual guide RNA, chemistry not given here) [CR003390]” the “Avg % Deletion” value was 2.44%, the “Avg % Edit” value was 24.88% and the “Avg % Insert” value was 22.44%.
“UUCUUUGGCAACUUACCCAG (tested as dual guide RNA, chemistry not given here) [CR003357]” was tested, and the “Avg % Deletion” value was 3.46%, the “Avg % Edit” value was 45.83% and the “Avg % Insert” value was 42.37%.
For “GCCGUGGUGGAAUAGGAGUA (tested as dual guide RNA, chemistry not given here) [CR003387]”, the “Avg % Deletion” value was 0.12%, the “Avg % Edit” value was 1.39% and the “Avg % Insert” value was 1.27%.
For “AGGCAGUCCUGCCAUCAAUG (tested as dual guide RNA, chemistry not given here) [CR003348]”, the “Avg % Deletion” value was 21.40%, the “Avg % Edit” value was 38.44% and the “Avg % Insert” value was 17.04%.
“GCAUGGGCUCACAACUGAGG (tested as dual guide RNA, chemistry not given here) [CR003362]” was tested, and the “Avg % Deletion” value was 0.94%, the “Avg % Edit” value was 17.44% and the “Avg % Insert” value was 16.50%.
In the case of “AAUAGGAGUAGGGGCUCAGC (tested as dual guide RNA, chemistry not given here) [CR003384]”, the “Avg % Deletion” value is reported as 0.25%, the “Avg % Edit” value is reported as 3.37% and the “Avg % Insert” value is reported as 3.12%.
“AAAGUUCUAGAUGCUGUCCG (tested as dual guide RNA, chemistry not given here) [CR003346]” was tested, and the “Avg % Deletion” value was 0.05%, the “Avg % Edit” value was 0.13% and the “Avg % Insert” value was 0.07%.
With “GGCUGUCGUCACCAAUCCCA (tested as dual guide RNA, chemistry not given here) [CR003391]” the “Avg % Deletion” value was 0.50%, the “Avg % Edit” value was 48.78% and the “Avg % Insert” value was 48.28%.
In the case of “ACUGAGGAGGAAUUUGUAGA (tested as dual guide RNA, chemistry not given here) [CR003363]”, the “Avg % Deletion” value is reported as 14.07%, the “Avg % Edit” value is reported as 42.65% and the “Avg % Insert” value is reported as 28.58%.
“GCAGGGCGGCAAUGGUGUAG (tested as dual guide RNA, chemistry not given here) [CR003380]” was tested, and the “Avg % Deletion” value was 2.30%, the “Avg % Edit” value was 17.08% and the “Avg % Insert” value was 14.78%.
In the case of “CCCCUACUCCUAUUCCACCA (tested as dual guide RNA, chemistry not given here) [CR003385]”, the “Avg % Deletion” value is reported as 7.62%, the “Avg % Edit” value is reported as 53.94% and the “Avg % Insert” value is reported as 46.32%.
For “GGAGUAGGGGCUCAGCAGGG (tested as dual guide RNA, chemistry not given here) [CR003382]”, the “Avg % Deletion” value was 0.15%, the “Avg % Edit” value was 1.73% and the “Avg % Insert” value was 1.58%.
With “ACACAAAUACCAGUCCAGCA (tested as dual guide RNA, chemistry not given here) [CR003339]” the “Avg % Deletion” value was 55.84%, the “Avg % Edit” value was 68.21% and the “Avg % Insert” value was 12.37%.
“CUCUGCAUGCUCAUGGAAUG (tested as dual guide RNA, chemistry not given here) [CR003369]” was tested, and the “Avg % Deletion” value was 5.51%, the “Avg % Edit” value was 22.62% and the “Avg % Insert” value was 17.11%.
With “ACGUGUCUUCUCUACACCCA (tested as dual guide RNA, chemistry not given here) [CR005302]” the “Avg % Deletion” value was 2.29%, the “Avg % Edit” value was 33.21% and the “Avg % Insert” value was 30.93%.
“CUGGUAUUUGUGUCUGAGGC (tested as dual guide RNA, chemistry not given here) [CR003341]” was tested, and the “Avg % Deletion” value was 5.66%, the “Avg % Edit” value was 15.60% and the “Avg % Insert” value was 9.94%.
“GCGGCAAUGGUGUAGCGGCG (tested as dual guide RNA, chemistry not given here) [CR003377]” was tested, and the “Avg % Deletion” value was 1.02%, the “Avg % Edit” value was 16.30% and the “Avg % Insert” value was 15.29%.
With “AGUCCCUCAUUCCUUGGGAU (tested as dual guide RNA, chemistry not given here) [CR003392]” the “Avg % Deletion” value was 0.33%, the “Avg % Edit” value was 14.64% and the “Avg % Insert” value was 14.32%.
With “CUGCUCCUCCUCUGCCUUGC (tested as dual guide RNA, chemistry not given here) [CR003335]” the “Avg % Deletion” value was 4.23%, the “Avg % Edit” value was 37.19% and the “Avg % Insert” value was 32.96%.
“CUGAGGAGGAAUUUGUAGAA (tested as dual guide RNA, chemistry not given here) [CR003364]” was tested, and the “Avg % Deletion” value was 20.85%, the “Avg % Edit” value was 51.88% and the “Avg % Insert” value was 31.03%.
For “AAGUGCCUUCCAGUAAGAUU (tested as dual guide RNA, chemistry not given here) [CR003368]”, the “Avg % Deletion” value was 3.22%, the “Avg % Edit” value was 51.55% and the “Avg % Insert” value was 48.34%.
For “AGCCUUUCUGAACACAUGCA (tested as dual guide RNA, chemistry not given here) [CR003351]”, the “Avg % Deletion” value was 25.57%, the “Avg % Edit” value was 57.54% and the “Avg % Insert” value was 31.98%.
For “AAAGGCUGCUGAUGACACCU (tested as dual guide RNA, chemistry not given here) [CR003353]”, the “Avg % Deletion” value was 3.68%, the “Avg % Edit” value was 60.40% and the “Avg % Insert” value was 56.71%.
“CUUCUCUACACCCAGGGCAC (tested as dual guide RNA, chemistry not given here) [CR003342]” was tested, and the “Avg % Deletion” value was 0.28%, the “Avg % Edit” value was 11.06% and the “Avg % Insert” value was 10.78%.
